6 compounds from patent publication USRE43280E1, “Hyperforin derivatives, the use thereof and formulations containing them” (Indena S.p.A., priority 2002, dated 2012) can be followed below.

Like-named read-outs stand apart in the source and are kept apart here.

The test system of one experiment is rat. The experiment can be described thus: forced swimming test (struggling, floating, swimming). The settings on record: 3 doses: 30 minutes after the pre-test, 5 hours and 30 minutes before the test. In kind it is in vivo. The procedure:
The compounds were administered in 3 doses: 30 minutes after the pre-test, 5 hours and 30 minutes before the test.

Experiment [1] relates to APPs produced by α-secretase in neuroblastoma cell line (SH-SY5Y). Put plainly: release of APPs produced by α-secretase into the culture medium of SH-SY5Y cells. The class given is cell-based.
[2] abbreviates: 10 μM, SH-SY5Y culture medium, controls = 100.

As to tetrahydrohyperforin, in the experiment with rat (6.25 mg/Kg), the “Floating” value is 68.4 ± 7.6 s, the “Struggling” value is 51.4 ± 4.1 s and the “Swimming” value came out at 193.4 ± 13.2 s. In experiment [1] (setting [2]), this compound had an APPs % of 926%.

As to `CC(=O)OC1=C(CCC(C)C)C(=O)[C@@]2(CCC(C)C)C[C@H](CCC(C)C)[C@@](C)(CCCC(C)C)[C@]1(C(=O)C(C)C)C2=O` [Acetyloctahydrohyperforin, acetyloctahydrohyperforin], in the experiment with rat (6.25 mg/Kg), the “Floating” value worked out at 68.4 ± 5.7 s, the “Struggling” value was determined as 73.9 ± 5.9 s and the “Swimming” value stood at 171.9 ± 11.4 s. Besides, in experiment [1] (setting [2]), the APPs % worked out at 954%.

As for octahydrohyperforin lithium salt, in the experiment on rat (6.25 mg/Kg), the “Floating” value was 59.5 ± 11.3 s, the “Struggling” value amounted to 63.1 ± 5.8 s and the “Swimming” value was determined as 177.4 ± 14.9 s. In experiment [1] (setting [2]), this compound displayed an APPs % of 1383%.

In the case of `CNCCCN1c2ccccc2CCc2ccccc21` [Desipramin, reference compound], in the experiment on rat (10 mg/Kg), the “Floating” value is 53.0 ± 9.2 s, the “Struggling” value amounted to 148.3 ± 12.6 s and the “Swimming” value was 98.8 ± 7.9 s.

On to dodecahydrohyperforin, for which, in the experiment on rat (6.25 mg/Kg), the “Floating” value was found to be 55.1 ± 6.2 s, the “Struggling” value was 62.13 ± 5.1 s and the “Swimming” value came to 169.5 ± 10.1 s. Moreover, the APPs % in experiment [1] (setting [2]) is reported as 879%.

For the compound `CC(C)=CCC[C@]1(C)[C@@H](CC=C(C)C)C[C@@]2(CC=C(C)C)C(=O)[C@]1(C(=O)C(C)C)C(=O)C(CC=C(C)C)=C2O` [Hyperforin], in the experiment with rat (6.25 mg/Kg), the “Floating” value was determined as 60.4 ± 7.3 s, the “Struggling” value was 30.4 ± 4.6 s and the “Swimming” value was 99.3 ± 10.6 s. Also, the APPs % in experiment [1] is recorded as 296%.
